Results reported in patent US20030091627A1, “Rate-controlled delivery of macrolides” (priority 2001, published 2003).
Values after ≈ are worked out from the molar mass of the structure shown.

Assays:
[1] = Solubility of clarithromycin as a function of pH (tested in water without a buffer); assay type: physicochemical
[2] = Solubility of clarithromycin along the gastrointestinal tract; assay type: physicochemical
[3] = acidic pH; cited from earlier work

## CC[C@H]1OC(=O)[C@H](C)[C@@H](O[C@H]2C[C@@](C)(OC)[C@@H](O)[C@H](C)O2)[C@H](C)[C@@H](O[C@@H]2O[C@H](C)C[C@H](N(C)C)[C@H]2O)[C@](C)(OC)C[C@@H](C)C(=O)[C@H](C)[C@@H](O)[C@]1(C)O [Clarithromycin]
[1]; aqueous buffer, pH 2.4, water without a buffer, read-out: Solubility
  solubility: ~10000 µg/mL (≈ 13.4 mM)
[1]; aqueous buffer, pH 5.4, water without a buffer, read-out: Solubility
  solubility: ~5500 µg/mL (≈ 7.35 mM)
[1]; pH 7.4, water without a buffer
  solubility: about negligible
[2]; colon, pH 7.5 to 8.5
  solubility: about insoluble
[2]; duodenum (region of the gastrointestinal tract), read-out: Solubility
  solubility: 5000 µg/mL (≈ 6.68 mM)
[2]; stomach (region of the gastrointestinal tract), read-out: Solubility
  solubility: 10000 µg/mL (≈ 13.4 mM)
[3]
  Stability: stable at an acidic pH
